Several values for one entry are separate records, joined by “and”; a condition that tells them apart may be missing. Equal entries are not always repeated. Inconclusive results and toxic doses are left out. How the source made its calls: active means survival T/C of 150% or more; inactive means T/C below 125% in these data.
Tested on: BDF1 mice, P388 leukemia ip, median survival T/C
Experiment: NCI In Vivo Anticancer Drug Screen. Data for tumor model P388 Leukemia (intraperitoneal) in B6D2F1 (BDF1) mice
Conditions: endpoint: median survival time, higher = longer survival
How it was run: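 In tumour-bearing mice, survival after compound treatment is set against the vehicle group and given as a quotient.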

Measured: T/C

Cc1c(N)nc([C@H](CC(N)=O)NC[C@H](N)C(N)=O)nc1C(=O)N[C@H](C(=O)N[C@H](C)[C@@H](O)[C@H](C)C(=O)N[C@H](C(=O)NCCc1nc(-c2nc(C(=O)NCCC[S+](C)C)cs2)cs1)[C@@H](C)O)C(OC1OC(CO)C(O)C(O)C1OC1OC(CO)C(O)C(OC(N)=O)C1O)c1cnc[nH]1 (stereo partly drawn)
inactive: dose: 0.12 mg/kg/injection, schedule: Q03HX040 (ip), vehicle: saline 101 % of control | dose: 0.5 mg/kg/injection, schedule: Q03HX040 (ip), vehicle: saline 93 % of control | dose: 1.0 mg/kg/injection, schedule: Q01DX005 (ip), vehicle: water 105 % of control | dose: 1.0 mg/kg/injection, schedule: Q01DX009 (ip), vehicle: water 109 % of control | dose: 2.0 mg/kg/injection, schedule: Q01DX009 (ip), vehicle: saline 112 % of control and 115 % of control | dose: 2.0 mg/kg/injection, schedule: Q01DX009 (ip), vehicle: water 109 % of control | dose: 2.0 mg/kg/injection, schedule: Q03HX008 (ip), vehicle: saline 113 % of control | dose: 2.0 mg/kg/injection, schedule: Q03HX016 (ip), vehicle: saline 109 % of control | dose: 2.88 mg/kg/injection, schedule: Q01DX009 (ip), vehicle: saline 103 % of control | dose: 4.0 mg/kg/injection, schedule: Q01DX005 (ip), vehicle: water 107 % of control | dose: 4.0 mg/kg/injection, schedule: Q01DX009 (ip), vehicle: saline 109 % of control and 110 % of control | dose: 4.0 mg/kg/injection, schedule: Q01DX009 (ip), vehicle: water 98 % of control | dose: 4.0 mg/kg/injection, schedule: Q03HX008 (ip), vehicle: saline 109 % of control and 118 % of control | dose: 4.0 mg/kg/injection, schedule: Q03HX024 (ip), vehicle: saline 118 % of control | dose: 4.0 mg/kg/injection, schedule: Q04DX003 (ip), vehicle: other 124 % of control | dose: 4.8 mg/kg/injection, schedule: Q01DX009 (ip), vehicle: saline 115 % of control | dose: 8.0 mg/kg/injection, schedule: Q01DX005 (ip), vehicle: water 107 % of control | dose: 8.0 mg/kg/injection, schedule: Q01DX009 (ip), vehicle: water 100 % of control | dose: 8.0 mg/kg/injection, schedule: Q03HX008 (ip), vehicle: saline 118 % of control | dose: 8.0 mg/kg/injection, schedule: Q03HX016 (ip), vehicle: saline 122 % of control | dose: 8.0 mg/kg/injection, schedule: Q03HX024 (ip), vehicle: saline 104 % of control and 109 % of control | dose: 8.0 mg/kg/injection, schedule: Q04DX003 (ip), vehicle: other 108 % of control | dose: 10.8 mg/kg/injection, schedule: Q01DX009 (ip), vehicle: saline 110 % of control | dose: 12.0 mg/kg/injection, schedule: Q01DX009 (ip), vehicle: saline 117 % of control | dose: 13.0 mg/kg/injection, schedule: Q01DX001 (ip), vehicle: saline 113 % of control | dose: 13.33 mg/kg/injection, schedule: Q01DX009 (ip), vehicle: saline 119 % of control | dose: 13.33 mg/kg/injection, schedule: Q04DX003 (ip), vehicle: saline 100 % of control | dose: 16.0 mg/kg/injection, schedule: Q01DX001 (ip), vehicle: saline 118 % of control and 122 % of control | dose: 16.0 mg/kg/injection, schedule: Q01DX005 (ip), vehicle: water 109 % of control | dose: 16.0 mg/kg/injection, schedule: Q01DX009 (ip), vehicle: water 86 % of control | dose: 16.0 mg/kg/injection, schedule: Q03HX008 (ip), vehicle: saline 90 % of control and 122 % of control | dose: 16.0 mg/kg/injection, schedule: Q03HX016 (ip), vehicle: saline 104 % of control | dose: 18.0 mg/kg/injection, schedule: Q01DX009 (ip), vehicle: saline 95 % of control and 98 % of control | dose: 20.0 mg/kg/injection, schedule: Q01DX001 (ip), vehicle: saline 113 % of control | dose: 22.22 mg/kg/injection, schedule: Q04DX003 (ip), vehicle: saline 106 % of control | dose: 30.0 mg/kg/injection, schedule: Q01DX001 (ip), vehicle: saline 109 % of control | dose: 30.0 mg/kg/injection, schedule: Q01DX009 (ip), vehicle: saline 86 % of control | dose: 32.0 mg/kg/injection, schedule: Q01DX001 (ip), vehicle: saline 122 % of control | dose: 32.0 mg/kg/injection, schedule: Q04DX003 (ip), vehicle: other 101 % of control | dose: 32.0 mg/kg/injection, schedule: Q04DX003 (ip), vehicle: saline 100 % of control | dose: 32.0 mg/kg/injection, schedule: Q08DX002 (ip), vehicle: saline 109 % of control | dose: 37.0 mg/kg/injection, schedule: Q04DX003 (ip), vehicle: saline 110 % of control | dose: 44.0 mg/kg/injection, schedule: Q01DX001 (ip), vehicle: saline 113 % of control and 118 % of control | dose: 61.7 mg/kg/injection, schedule: Q04DX003 (ip), vehicle: saline 105 % of control | dose: 64.0 mg/kg/injection, schedule: Q01DX001 (ip), vehicle: saline 104 % of control and 118 % of control | dose: 64.0 mg/kg/injection, schedule: Q01DX009 (ip), vehicle: saline 95 % of control | dose: 64.0 mg/kg/injection, schedule: Q04DX003 (ip), vehicle: saline 109 % of control | dose: 64.0 mg/kg/injection, schedule: Q08DX002 (ip), vehicle: saline 122 % of control | dose: 67.0 mg/kg/injection, schedule: Q01DX001 (ip), vehicle: saline 113 % of control | dose: 100.0 mg/kg/injection, schedule: Q01DX001 (ip), vehicle: saline 108 % of control | dose: 128.0 mg/kg/injection, schedule: Q01DX001 (ip), vehicle: saline 118 % of control | dose: 128.0 mg/kg/injection, schedule: Q04DX003 (ip), vehicle: saline 100 % of control | dose: 128.0 mg/kg/injection, schedule: Q08DX002 (ip), vehicle: saline 104 % of control and 118 % of control
